The results in this text go back to patent US10548877B2, “Aromatic ring compound” (TAKEDA PHARMACEUTICAL COMPANY LIMITED, priority 2016, dated 2020).

In this experiment the target is T1, human M1 receptor (hCHRM1) (Homo sapiens, UniProt P11229).
T1 construct: expressed in transfected cells
T1 sequence (P11229 1-460): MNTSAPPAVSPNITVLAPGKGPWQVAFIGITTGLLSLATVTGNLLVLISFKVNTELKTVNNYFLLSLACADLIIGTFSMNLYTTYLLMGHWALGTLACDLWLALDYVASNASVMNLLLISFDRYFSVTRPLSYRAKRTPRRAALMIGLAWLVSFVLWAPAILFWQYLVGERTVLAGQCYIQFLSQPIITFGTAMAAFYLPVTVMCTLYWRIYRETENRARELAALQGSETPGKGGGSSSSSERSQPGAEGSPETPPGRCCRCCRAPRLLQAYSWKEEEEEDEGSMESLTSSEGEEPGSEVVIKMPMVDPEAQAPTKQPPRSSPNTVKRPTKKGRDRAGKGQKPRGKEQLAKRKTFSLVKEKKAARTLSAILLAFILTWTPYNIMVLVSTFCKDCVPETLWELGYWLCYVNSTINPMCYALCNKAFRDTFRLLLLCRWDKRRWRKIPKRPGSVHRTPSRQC
Nature of the experiment: Measurement of M1 receptor positive allosteric modulator (M1PAM) activity (calcium fluorescence, Fluo-4). It counts as cell-based. The settings on record: for EC50: inflection point of concentration-dependent curve, CHO-K1 cells stably expressing hCHRM1, in presence of acetylcholine at EC20 (final 0.8-1.0 nM), read-out: IP value; for activity (%) at 10 μM: test compound 10 μM with acetylcholine at EC20, 100% = 1 μM acetylcholine, 0% = DMSO, CHO-K1 cells expressing hCHRM1. On the procedure:
Measurement of M1 Receptor Positive Allosteric Modulator (M1PAM) Activity
The activity of a test compound in the presence of acetylcholine at EC20 concentration (final concentration 0.8-1.0 nM), which affords an action corresponding to about 20% of the maximum activity, was measured as PAM activity. The method is as follows. CHO-K1 cells stably expressing a human M1 receptor (hCHRM1) were plated on a 384-well black clear bottom plate (BD Falcon) at 5,000 cells/well, and cultured in an incubator at 37° C., 5% CO2 for 1 day. The medium in the cell plate was removed, and assay buffer A containing a calcium indicator (Recording medium (DOJINDO LABORATORIES), 0.1% BSA (Wako Pure Chemical Industries, Ltd.), 2.5 μg/mL Fluo-4 AM (DOJINDO LABORATORIES), 0.08% Pluronic F127 (DOJINDO LABORATORIES) and 1.25 mM probenecid (DOJINDO LABORATORIES) were added at 30 μL/well. The cells were left standing in the incubator at 37° C., 5% CO2 for 30 min, and further left standing at room temperature for 30 min. A test compound prepared by diluting with assay buffer B (HBSS (Invitrogen), 20 mM HEPES (Invitrogen), 0.1% BSA) containing 3.2-4.0 nM acetylcholine was added at 10 μL/well, and the fluorescence was measured by FDSS/pcell (Hamamatsu Photonics K.K.) for 1 min every for 1 second. With the definition that the amount of change in the fluorescence on addition of acetylcholine (final concentration 1 μM) is 100% and that on addition of DMSO instead of a test compound is 0%, the activity (%) of the test compound was calculated, and the inflection point in the concentration-dependent curve of the test compound was calculated as IP values.

Consider `COc1c(C(=O)N[C@H]2COCC[C@@H]2O)cc(Cc2ccc(-c3cn(C)nc3C)nc2)c(C)c1C` [Example 28, 1,5-anhydro-2,4-dideoxy-2-((5-((6-(1,3-dimethyl-1H-pyrazol-4-yl)pyridin-3-yl)methyl)-2-methoxy-3,4-dimethylbenzoyl)amino)-L-threo-pentitol], for which the EC50 was determined as 20 nM and the “activity (%) at 10 μM” value amounted to 100%.
On the same counts, the results for `COc1c(C(=O)N[C@H]2COCC[C@@H]2O)cc(Cc2ccc(-c3cn(C)nc3C)cc2)c(C)c1C` [Example 29, 1,5-anhydro-2,4-dideoxy-2-((5-(4-(1,3-dimethyl-1H-pyrazol-4-yl)benzyl)-2-methoxy-3,4-dimethylbenzoyl)amino)-L-threo-pentitol] are 48 nM and 97%.
Consider `COc1c(C(=O)N[C@H]2COCC[C@@H]2O)cc(Cc2ccc(-c3ccn(C)n3)nc2)c(C)c1C` [Example 31, 1,5-anhydro-2,4-dideoxy-2-((2-methoxy-3,4-dimethyl-5-((6-(1-methyl-1H-pyrazol-3-yl)pyridin-3-yl)methyl)benzoyl)amino)-L-threo-pentitol], for which the EC50 is 67 nM and the “activity (%) at 10 μM” value is 97%.
As for `Cc1c(Cc2ccc(-c3cscn3)cc2)cc(C(=O)N[C@H]2COCC[C@@H]2O)c(F)c1C` [Example 32, 1,5-anhydro-2,4-dideoxy-2-((2-fluoro-3,4-dimethyl-5-(4-(1,3-thiazol-4-yl)benzyl)benzoyl)amino)-L-threo-pentitol], the EC50 amounted to 16 nM and the “activity (%) at 10 μM” value was 101%.
